The source of these data is patent publication US20260022352A1, “COMPOSITIONS AND METHODS FOR PURIFYING […]” (North Carolina State University, priority 2023, published 2026).

The subject of test [1] is LVV particles. Further details: species or system lentivirus.
For test [2], the system named is LVV particles. Further details: species or system lentivirus. The source holds these as a separate data set.
Test [3] deals with LVV particles. Format: binding, lentivirus.

“And” between values parts separate entries of the source, which are not always exact repeats. Identical values can stand only once. Where no end group is shown, it is not given here.

Regarding GKEAAFAA, the “LVV adsorbed (binding capacity) across cycles” value (“LVV adsorbed” for short) in the test on LVV particles [1] is reported as > 10^9 TU/mL. Also, the “DBC10% (TU per mL of resin)” value with LVV particles [2] is 5.3 · 10^9 TU per mL of resin and 3.9 · 10^9 TU per mL of resin and 4.4 · 10^9 TU per mL of resin and 3.7 · 10^9 TU per mL of resin. In the case of SFVRIGLSD, in the test with LVV particles [1], the “LVV adsorbed” value is ~10^9 TU/mL. In addition, in the test with LVV particles [3], the “binding capacity (summary)” value was ~6.24·10^9 TU per mL of resin.

Take SRAFVGDADRD: in the test on LVV particles [1], the “LVV adsorbed” value is recorded as ~10^9 TU/mL. In the test on LVV particles [3], the “binding capacity (summary)” value is on record as ~6.24·10^9 TU per mL of resin.

Turning to “SRAFVGDADRD-Poros: peptide SRAFVGDADRD (SEQ ID NO: 4) conjugated on aminated Poros resin (also: conjugated to aminated Poros resin, site not given here)”, the “DBC10% (vg/mL), real time qPCR” value with LVV particles [3] was 6.89·10^9 vg/mL.
